Test results reported in ChEMBL document CHEMBL4177526, “Discovery and structure activity relationship of the first potent cryptosporidium FIKK kinase inhibitor” (Bioorg Med Chem, 2017).

Experiments:
[1] = biological target: Dual specificity mitogen-activated protein kinase kinase 6 (Homo sapiens) (UniProt P52564); assay: Inhibition of human MKK6 (2 to 334 residues) assessed as residual activity at 500 nM in presence of 33P-ATP by filter binding assay relative to control
[2] = Permeability in human Caco2 cells; format: ADME, cell-based; conditions: Caco-2, read-out: permeability
[3] = system: TGF-beta receptor type-1 (Homo sapiens), P36897 [T204D]; assay: Inhibition of human TGFbetaR1 T204D mutant (200 to 501 residues) at 500 nM in presence of 33P-ATP by filter binding assay relative to control
[4] = biological target: Serine/threonine-protein kinase pim-3 (Homo sapiens) (UniProt Q86V86); assay: Inhibition of human PIM3 (2 to 326 residues) assessed as residual activity at 500 nM in presence of 33P-ATP by filter binding assay relative to control
[5] = biological target: Serine/threonine-protein kinase pim-1 (Homo sapiens) (UniProt P11309); assay: Inhibition of human PIM1 (2 to 313 residues) assessed as residual activity at 500 nM in presence of 33P-ATP by filter binding assay relative to control
[6] = biological target: Tyrosine-protein kinase JAK2 (Homo sapiens) (UniProt O60674); assay: Inhibition of JAK2 (unknown origin) assessed as residual activity at 500 nM relative to control
[7] = biological target: Insulin-like growth factor 1 receptor (Homo sapiens) (UniProt P08069); assay: Inhibition of human IGF1R (954 to 1367 residues) assessed as residual activity at 500 nM in presence of 33P-ATP by filter binding assay relative to control
[8] = biological target: Interleukin-1 receptor-associated kinase 4 (Homo sapiens) (UniProt Q9NWZ3); assay: Inhibition of human IRAK4 (14 to 460 residues) assessed as residual activity at 500 nM in presence of 33P-ATP by filter binding assay relative to control
[9] = biological target: Receptor-interacting serine/threonine-protein kinase 2 (Homo sapiens) (UniProt O43353); assay: Inhibition of human RIPK2 (2 to 311 residues) at 500 nM in presence of 33P-ATP by filter binding assay relative to control
[10] = biological target: Angiopoietin-1 receptor (Homo sapiens) (UniProt Q02763); assay: Inhibition of human TIE2 (771 to 1124 residues) assessed as residual activity at 500 nM in presence of 33P-ATP by filter binding assay relative to control
[11] = biological target: Mitogen-activated protein kinase 15 (Homo sapiens) (UniProt Q8TD08); assay: Inhibition of human ERK8 (2 to 544 residues) assessed as residual activity at 500 nM in presence of 33P-ATP by filter binding assay relative to control
[12] = biological target: Mitogen-activated protein kinase kinase kinase 9 (Homo sapiens) (UniProt P80192); assay: Inhibition of human MLK1 (132 to 413 residues) assessed as residual activity at 500 nM in presence of 33P-ATP by filter binding assay relative to control
[13] = biological target: Ephrin type-B receptor 2 (Homo sapiens) (UniProt P29323); assay: Inhibition of human EPHB2 (560 to 987 residues) assessed as residual activity at 500 nM in presence of 33P-ATP by filter binding assay relative to control
[14] = biological target: Proto-oncogene tyrosine-protein kinase Src (Homo sapiens) (UniProt P12931); assay: Inhibition of human SRC (1 to 536 residues) assessed as residual activity at 500 nM in presence of 33P-ATP by filter binding assay relative to control
[15] = biological target: Serine/threonine-protein kinase Chk1 (Homo sapiens) (UniProt O14757); assay: Inhibition of human CHK1 (1 to 476 residues) assessed as residual activity at 500 nM in presence of 33P-ATP by filter binding assay relative to control
[16] = biological target: Discoidin domain-containing receptor 2 (Homo sapiens) (UniProt Q16832); assay: Inhibition of human DDR2 (467 to 854 residues) assessed as residual activity at 500 nM in presence of 33P-ATP by filter binding assay relative to control
[17] = biological target: Protein-tyrosine kinase 6 (Homo sapiens) (UniProt Q13882); assay: Inhibition of human BRK (1 to 451 residues) assessed as residual activity at 500 nM in presence of 33P-ATP by filter binding assay relative to control
[18] = biological target: MAP/microtubule affinity-regulating kinase 3 (Homo sapiens) (UniProt P27448); assay: Inhibition of human MARK3 (2 to 729 residues) assessed as residual activity at 500 nM in presence of 33P-ATP by filter binding assay relative to control
[19] = biological target: Protein kinase C gamma type (Homo sapiens) (UniProt P05129); assay: Inhibition of human PKCgamma (1 to 697 residues) assessed as residual activity at 500 nM in presence of 33P-ATP by filter binding assay relative to control
[20] = biological target: Serine/threonine-protein kinase 16 (Homo sapiens) (UniProt O75716); assay: Inhibition of human MPSK1 (1 to 305 residues) assessed as residual activity at 500 nM in presence of 33P-ATP by filter binding assay relative to control
[21] = biological target: Homeodomain-interacting protein kinase 1 (Homo sapiens) (UniProt Q86Z02); assay: Inhibition of human HIPK1 (158 to 555 residues) assessed as residual activity at 500 nM in presence of 33P-ATP by filter binding assay relative to control
[22] = biological target: Aurora kinase B (Homo sapiens) (UniProt Q96GD4); assay: Inhibition of human Aurora B (1 to 344 residues) assessed as residual activity at 500 nM in presence of 33P-ATP by filter binding assay relative to control
[23] = biological target: Ephrin type-A receptor 2 (Homo sapiens) (UniProt P29317); assay: Inhibition of human EPHA2 (591 to 976 residues) assessed as residual activity at 500 nM in presence of 33P-ATP by filter binding assay relative to control
[24] = biological target: Serine/threonine-protein kinase 26 (Homo sapiens) (UniProt Q9P289); assay: Inhibition of human MST4 (1 to 416 residues) assessed as residual activity at 500 nM in presence of 33P-ATP by filter binding assay relative to control
[25] = biological target: Interleukin-1 receptor-associated kinase 1 (Homo sapiens) (UniProt P51617); assay: Inhibition of human IRAK1 (1 to 712 residues) assessed as residual activity at 500 nM in presence of 33P-ATP by filter binding assay relative to control
[26] = biological target: Vascular endothelial growth factor receptor 2 (Homo sapiens) (UniProt P35968); assay: Inhibition of human VEGFR2 (unknown origin) at 500 nM relative to control
[27] = biological target: CDK2/Cyclin A2 (Homo sapiens) (UniProt P24941+P20248); assay: Inhibition of human CDK2 (2 to 298 residues)/cyclinA2 (171 to 432 residues) assessed as residual activity at 500 nM in presence of 33P-ATP by filter binding assay relative to control; format: protein-complex assay

With `Cc1cccc(-c2nc(N)sc2-c2ccc3ncccc3n2)c1` the Activity [1] was 96%, the Papp [2] was 11 ×10⁻⁶ cm/s and the inhibition [3] was 86%. The Activity [4] was 91%, the Activity [5] was 97% and the Activity [6] was 125%. It also gave an Activity [7] of 104%, an Activity [8] of 110% and an inhibition [9] of 70%. The Activity [10] was 106%, the Activity [11] was 123% and the Activity [12] was 106%. It also gave an Activity [13] of 95%, an Activity [14] of 105% and an Activity [15] of 109%. It also gave an Activity [16] of 91%, an Activity [17] of 74% and an Activity [18] of 121%. It also gave an Activity [19] of 103%, an Activity [20] of 99% and an Activity [21] of 106%. It also gave an Activity [22] of 89%, an Activity [23] of 99% and an Activity [24] of 113%. It also gave an Activity [25] of 109%, an inhibition [26] of 59% and an Activity [27] of 104%.
